In paper PMC10488051, “Screening, Synthesis and Biochemical Characterization of SARS-CoV-2 Protease Inhibitors” (International Journal of Molecular Sciences, 2023):
Where “and” joins values, the source holds several entries; their conditions need not be identical. Equal values may be shown once. Entries after “also recorded” stand apart in the source; their conditions may differ.

Experiments:
SARS-CoV-2 PL^pro = SARS-CoV-2 PL^pro (Severe acute respiratory syndrome coronavirus 2, UniProt P0DTD1); test: PL^pro enzymatic inhibition assay (FRET-based, Z-RLRGG-AMC substrate); format: biochemical; conditions: Table 2 disulfide compounds; enzymatic inhibition assay, 25 °C, pH 7.5; PL^pro dialyzed to avoid DTT
SARS-CoV-2 M^pro = SARS-CoV-2 M^pro (Severe acute respiratory syndrome coronavirus 2, UniProt P0DTD1); test: biochemical; format: biochemical; conditions: Table 2 disulfide compounds; enzymatic inhibition assay, 25 °C, pH 7.5
PL^pro = PL^pro (Severe acute respiratory syndrome coronavirus 2, UniProt P0DTD1); format: binding
M^pro [1] = molecular target: T1, M^pro (Severe acute respiratory syndrome coronavirus 2, UniProt P0DTD1); format: binding
wt PL^pro = wt PL^pro (Severe acute respiratory syndrome coronavirus 2, UniProt P0DTD1)
SARS-CoV-2 = conditions: patients with mild-to-moderate COVID-19; cited from earlier work
M^pro [2] = molecular target: T1, M^pro; conditions: cited from earlier work
[3] = no reducing agents, 1 h incubation at room temperature

SMILES: Nc1ccccc1SSc1ccccc1N [Compound 32]
- Kd (SARS-CoV-2 PL^pro): 0.54 µM
- Kd (SARS-CoV-2 M^pro): 2.8 µM
- Covalent binding to PL^pro by mass spectrometry (PL^pro; [3]): covalent binding of 32 with PL^pro and M^pro was confirmed
- Mass shift of PL^pro-compound adduct (major peak) (PL^pro; protein/ligand molar ratio 1:5 for 32): 123.13 Da
- Covalent binding to M^pro by mass spectrometry (M^pro [1]; [3]): covalent binding of 32 with PL^pro and M^pro was confirmed
- Mass shift of M^pro-compound adduct (major peak) (M^pro [1]; protein/ligand molar ratio 1:10): 245.73 Da and 245.7 Da
- Thermal effect (Tm) on wild-type PL^pro (wt PL^pro): strongly destabilized the native PL^pro; also recorded: thermal destabilization effect (Tm decrease) induced by 32 is seen only for wild-type PL^pro

SMILES: Cn1cnc(Cn2c(=O)[nH]/c(=N\c3cc4cn(C)nc4cc3Cl)n(Cc3cc(F)c(F)cc3F)c2=O)n1 [S-217622]
- Antiviral efficacy in patients (SARS-CoV-2): rapid and favorable antiviral efficacy

SMILES: CCN(CC)C(=S)SSC(=S)N(CC)CC [disulfiram]
- Covalent interaction with cysteine residues of M^pro (M^pro [2]): interact covalently with cysteine residues of M^pro
